Measured values reported in US9708628B2, “Cationic lipid having improved intracellular kinetics” (NOF CORPORATION, priority 2011, dated 2017).

Legend:
[1] = Particle size and surface potential of pDNA-encapsulating MENDs, dynamic light scattering (Zetasizer Nano); assay type: physicochemical
Method: A solution of pDNA encoding luciferase gene and protamine (CALBIOCHEM) solution were diluted with 10 mM HEPES buffer to 0.3 mg/mL and […], respectively. While stirring 0.3 mg/mL pDNA (125 μL), 0.24 mg/mL protamine (125 μL) was added dropwise in small portions to prepared an electrostatic complex of protamine and pDNA (N/P ratio=1.2) as a core of the vector. In the method described in the following (2), 10 mM HEPES buffer (pH 5.3) was used and, in the method described in (3), 10 mM HEPES buffer (pH 7.4) was used.
A lipid solution in ethanol was prepared by mixing 5 mM cationic lipid, 5 mM phospholipid and 5 mM cholesterol (Chol) at desired ratios to achieve 165 nmol total lipid in an Eppendorf tube, further adding various PEG lipids (1 mM solution in ethanol) in an amount corresponding to 3 mol % of the total lipid, and adding ethanol to achieve a total volume of 100 μL. While stirring the lipid solution in a vortex mixer, 100 μL of the nucleic acid electrostatic complex (10 mM HEPES; pH 5.3) prepared in [Experimental Example 1] (1) was quickly added, and thereafter 10 mM HEPES buffer (1.8 mL, adjusted to pH 5.3) was added to dilute the mixture to an ethanol concentration of 5%. The mixture was concentrated to about 50 μL by ultrafiltration using Amicon Ultra 4 (Millipore) under centrifugation conditions (room temperature, 2267 rpm, 20 min). Thereafter, it was diluted to 4 mL with 100 mM HEPES buffer (adjusted to pH 7.4), and again concentrated by centrifugation (2267 rpm, 20 min) under room temperature conditions. Finally, it was diluted with 10 mM HEPES buffer (pH 7.4) to a desired lipid concentration.
A solution of each lipid in chloroform (5 mM DOTAP 24.75 μL, 5 mM DOPE 33 μL, 5 mM Chol 24.75 μL) were mixed in a glass test tube at DOTAP:DOPE:Chol=3:4:3 to achieve 412.5 nmol total lipid. Ethanol was added to a total amount of 250 μL, and the mixture was dried under reduced pressure in a desiccator. The solvent was evaporated to give a lipid thin film. To the lipid thin film was added 250 μL of the gene electrostatic complex (in 10 mM HEPES; pH 7.4) prepared in [Experimental Example 1] (1) to a total lipid concentration of 1.65 mM, and the mixture was stood at room temperature for 10 min to allow for hydration, and sonicated by a sonicator (AIWA MEDICAL […] CO., LTD.) for 1 min.
The particle size and the surface potential were measured by the dynamic light scattering method (Zetasizer Nano; Malve Rn). The particle size and the surface potential of the various MENDs prepared by the preparation method of [Experimental Example 1] are shown in Table 3. The charge of B-2 and DODAP at physiological pH was in a preferable mode of −10 to +10 mV, whereas that of B-2-1 was +12.3, which is not less than +10 mV.
(1) MEND having a composition of B-2-4 (Example 4):DOPE:Chol=3:3:4 or B-2-5 (Example 5):POPE:Chol=3:4:3 was prepared according to the method described in [Experimental Example 1] (1) and (2).
The particle size and the surface potential were measured by the dynamic light scattering method (Zetasizer Nano; Malvern). The particle size and the surface potential of the various MENDs prepared by the preparation method of [Experimental Example 1] are shown in Table 4.

HT1080 cells = assay: Intracellular kinetics: endosomal escape of rhodamine-labeled pDNA (confocal microscopy); assay type: cell-based; conditions: for gene endosomal escape efficiency, quantified (order): FIG. 7; for endosomal escape potency (colocalization of pDNA red and endosome/lysosome green): cationic lipid:SOPE:Chol=5:3:2 or DOTAP:DOPE:Chol=3:4:3, 3 hr after transfection
Method: For MEND preparation, the Rhodamine-labeled pDNA prepared by the method of [Experimental Example 1] (4) was used. MEND having a composition of cationic lipid:SOPE:Chol=5:3:2 was prepared by the method described in [Experimental Example 1] (2). For the preparation, PEG2000-DMG was used as PEG lipid, and MEND solutions corresponding to 0.55 mM of the lipid concentration were prepared. For cationic MEND, lipids having a composition of DOTAP (Comparative Example 3):DOPE:Chol:=3:4:3 were used, and the cationic MEND was prepared according to the method described in [Experimental Example 1] (3). In addition, cationic MEND having a lipid composition of DOTAP:DOPE:Chol:=3:4:3 was also prepared by a simple hydration method to have a lipid concentration of 0.55 mM.
HT1080 cells were plated on a glass bottom dish at 1×10^5 cells/2 mL/dish 24 hr before. Since MENDs composed of B-2 or DODAP show low uptake activity into cells, MEND was diluted with Krebs buffer to pDNA 8 μg/1 mL Krebs buffer/dish. As for B-2-1 or DOTAP MEND having a high uptake activity, MEND was diluted with Krebs buffer to pDNA 1.6 μg/1 mL Krebs buffer/dish and transfected into the cells. After 2.5 hr, Lysotracker Green (Life technologies) was added at 1 μL/dish and, 30 min later, Hoechst 33342 (Dojindo) was further added at 1 μL/dish. 3 hr after the transfection, the cells were washed twice with heparin (20 units/mL, 2 mL), Krebs buffer (1 mL) was added, and the mixture was observed by a confocal laser scan microscope.
Rhodamine-labeled pDNA, endosome/lysosome, and nucleus were shown in pseudo colors of red, green and blue, respectively. The endosomal escape potency was evaluated by the colocalization of red and green. […] Furthermore, the gene endosomal escape efficiency was quantified to find higher efficiency in the order of DODAP<B-2-1<B-2.

[2] = pDNA MEND, cationic lipid:SOPE:Chol = 3:4:3
[3] = pDNA MEND, cationic lipid:SOPE:Chol = 5:3:2
[4] = pDNA MEND, DOTAP:DOPE:Chol = 3:4:3
[5] = pDNA MEND, cationic lipid:DOPE:Chol = 3:3:4
[6] = pDNA MEND, cationic lipid:POPE:Chol = 3:4:3

Compound: CCCCCCCC/C=C\CCCCCCCC(=O)OCC(CN(C)C)OC(=O)CCCCCCC/C=C\CCCCCCCC (stereo not drawn) [DODAP, reference compound]
- PDI [1, 2]: 0.093
- size (nm) [1, 2]: 151.1 nm
- zeta (mV) [1, 2]: −3.18 mV
- PDI [1, 3]: 0.106
- size (nm) [1, 3]: 165.6 nm
- zeta (mV) [1, 3]: 4.13 mV
- gene endosomal escape efficiency, quantified (order) (HT1080 cells): DODAP<B-2-1<B-2
- endosomal escape potency (colocalization of pDNA red and endosome/lysosome green) (HT1080 cells): colocalization of red and green was notable

Compound: CCCCCCCC/C=C\CCCCCCCC(=O)OCC(C[N+](C)(C)C)OC(=O)CCCCCCC/C=C\CCCCCCCC (stereo not drawn) [DOTAP, reference compound]
- surface potential of MEND ([1]; pDNA MEND using DOTAP): about +50 mV
- PDI [1, 4]: 0.295
- size (nm) [1, 4]: 235.8 nm
- zeta (mV) [1, 4]: 57.9 mV
- endosomal escape potency (colocalization of pDNA red and endosome/lysosome green) (HT1080 cells): red signal alone was present

Compound: CCCCCCCCCCCCCC(=O)OCCCN(C)CCCCCCN(C)CCCOC(=O)CCCCCCCCCCCCC [Example B-2-1, reference compound]
- charge at physiological pH ([1]; pDNA MEND): +12.3 mV
- PDI [1, 2]: 0.07
- size (nm) [1, 2]: 150.3 nm
- zeta (mV) [1, 2]: 12.4 mV
- PDI [1, 3]: 0.084
- size (nm) [1, 3]: 147.8 nm
- zeta (mV) [1, 3]: 12.3 mV
- gene endosomal escape efficiency, quantified (order) (HT1080 cells): DODAP<B-2-1<B-2
- endosomal escape potency (colocalization of pDNA red and endosome/lysosome green) (HT1080 cells): red signal alone was present

Compound: CC1=C(/C=C/C(C)=C/C=C/C(C)=C/C(=O)OCCCN(C)CCSSCCN(C)CCCOC(=O)/C=C(C)/C=C/C=C(C)/C=C/C2=C(C)CCCC2(C)C)C(C)(C)CCC1 [Example B-2-4]
- PDI [1, 5]: 0.12
- size (nm) [1, 5]: 146.7 nm
- zeta (mV) [1, 5]: −7.22 mV

Compound: Cc1c(C)c2c(c(C)c1OC(=O)CCC(=O)OCCCN(C)CCSSCCN(C)CCCOC(=O)CCC(=O)Oc1c(C)c(C)c3c(c1C)CCC(C)(CCCC(C)CCCC(C)CCCC(C)C)O3)CCC(C)(CCCC(C)CCCC(C)CCCC(C)C)O2 (stereo not drawn) [Example B-2-5]
- PDI [1, 6]: 0.15
- size (nm) [1, 6]: 131.7 nm
- zeta (mV) [1, 6]: −9.35 mV

Compound: CCCCCCCCCCCCCC(=O)OCCCN(C)CCSSCCN(C)CCCOC(=O)CCCCCCCCCCCCC [Example B-2]
- PDI [1, 2]: 0.14
- size (nm) [1, 2]: 156.3 nm
- zeta (mV) [1, 2]: −0.08 mV
- PDI [1, 3]: 0.11
- size (nm) [1, 3]: 168.9 nm
- zeta (mV) [1, 3]: −2.95 mV
- gene endosomal escape efficiency, quantified (order) (HT1080 cells): DODAP<B-2-1<B-2
- endosomal escape potency (colocalization of pDNA red and endosome/lysosome green) (HT1080 cells): red signal alone was present
